These results are taken from BindingDB's records for patent US20250136592 (Bridge Medicines, 2025).

The structures appear in SMILES notation.

The target in the experiment is T1, Protein ENL (Homo sapiens, UniProt Q03111).
T1 sequence (Q03111 whole entry): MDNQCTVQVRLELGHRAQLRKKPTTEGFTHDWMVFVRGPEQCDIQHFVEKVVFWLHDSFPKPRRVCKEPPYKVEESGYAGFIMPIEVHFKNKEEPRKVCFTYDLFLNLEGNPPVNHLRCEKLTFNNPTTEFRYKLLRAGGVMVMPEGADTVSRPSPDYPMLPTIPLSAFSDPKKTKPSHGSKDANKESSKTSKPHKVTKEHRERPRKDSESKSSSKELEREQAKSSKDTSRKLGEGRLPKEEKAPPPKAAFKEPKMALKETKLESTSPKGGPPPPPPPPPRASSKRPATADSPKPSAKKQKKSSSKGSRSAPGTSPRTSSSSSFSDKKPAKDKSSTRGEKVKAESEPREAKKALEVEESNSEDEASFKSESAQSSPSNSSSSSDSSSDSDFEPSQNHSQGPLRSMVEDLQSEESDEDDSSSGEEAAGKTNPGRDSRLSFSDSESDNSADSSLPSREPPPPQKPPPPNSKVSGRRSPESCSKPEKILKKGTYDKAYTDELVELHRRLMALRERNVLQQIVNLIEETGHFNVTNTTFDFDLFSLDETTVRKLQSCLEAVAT
As to the kind of experiment: FRET Assay. How it is done:
Low control (LC) wells received 5 μL of assay buffer instead of ENL protein. […] The response at each compound concentration minus the LC value was converted to percent inhibition of the vehicle control group response (HC-LC).
In turn, `CN1CCC[C@@H]1c1nc2cc(NC(=O)c3ccc4c(-c5ccncc5)noc4c3)ccc2[nH]1` [US20250136592, Example 13] displayed an IC50 of 158 nM. That is a sub-micromolar value. With `CN1CCC[C@@H]1c1cc2cnc(NC(=O)c3ccc4c(c3)nnn4-c3ccncc3)cc2[nH]1` [US20250136592, Example 85], the concentration for half-maximal inhibition (IC50) was found to be 56 nM. As for `Cc1nccc2cc(C(=O)Nc3cc4[nH]c([C@H]5CCCCN5C)cc4cn3)ccc12` [US20250136592, Example 80], the figure is 18 nM; as for `CN1CCC[C@@H]1c1nc2ccc(NC(=O)c3ccc4c(C5CC5)nn(C)c4c3)cc2[nH]1` [US20250136592, Example 10], 98 nM.
